Assay results reported in patent US12064437B2, “Methods for treating systemic lupus erythematosus and the use of biomarkers as a predictor of clinical sensitivity to therapies” (CELGENE CORPORATION, priority 2020, dated 2024).

Columns and labels:
[1] = system: subjects with active autoantibody-positive SLE; assay: Exposure-response analysis: logistic regression of SRI(4) response on iberdomide AUCss; format: in vivo, human
Description: PK assessments were performed. Exposure-response analysis included subjects from Study SLE-002 who had both posthoc estimated iberdomide PK metric of AUCss from the final population PK model and efficacy data.
The effect of iberdomide exposure on SRI(4) response was further evaluated by multivariate logistic modeling. Subject characteristics of baseline oral OCS (yes as reference), baseline antimalarials (yes as reference), categorical variables of Type I IFN and IKZF3 (Aiolos) signature (low as reference) were tested in regression analysis. Subjects with IFKZ3 (Aiolos) high gene signature were associated with better response (p=0.033) (Table 2).

[2] = system: subjects with active autoantibody-positive SLE; assay: Phase 2b study in SLE: SLE Responder Index 4 (SRI-4) response at week 24; format: in vivo, human; conditions: for Percentage of Subjects Who Achieve SRI(4) at Week 24, n/m (%) / SRI(4) at Week 24, Stratified Difference (%) (95% CI), Iberdomide - Placebo: ITT; for SRI-4 treatment effect versus placebo: week 24
Description: The pharmacokinetics, pharmacodynamics (PD), efficacy, and safety of oral iberdomide ((S)-3-[4-({4-[(morpholin-4-yl)methyl]phenyl}methoxy)-1-oxo-1,3-dihydro-2H-isoindol-2-yl]piperidine-2,6-dione-hydrogen chloride (1/1)) were evaluated in a phase 2b study in subjects with active autoantibody-positive SLE.
Adult SLE patients (N=288) with a ≥6-month history of SLE and SLE Disease Activity Index (SLEDAI 2K) ≥6 were randomized to placebo (n=83) or iberdomide 0.15 mg QD (n=42), 0.3 mg QD (n=82), or 0.45 mg QD (n=81). Clinical response was determined by the SLE Responder Index 4 (SRI-4) at week 24 for all patients and within pre-specified biomarker-enriched subsets based on expression of Ikaros, Aiolos, the Type 1 IFN signature (IFI27, IFI44, IFI44L, RSAD2), and other gene modules measured from fingerstick blood collected at baseline (Modular Immune Profile Test, DxTerity Diagnostics, Inc.). The primary objective of the study was to evaluate the clinical efficacy of 3 doses of iberdomide (0.45 mg once per day [QD], 0.30 mg QD, or 0.15 mg QD) compared to placebo, for the treatment of active SLE using the SLE Responder Index at Week 24.

[3] = AUCss on IFKZ3 (Aiolos) High Subset
[4] = B cell: High at baseline, 0.15 mg QD
[5] = B cell: High at baseline, 0.30 mg QD
[6] = B cell: High at baseline, 0.45 mg QD
[7] = IKZF1: High at baseline, 0.15 mg QD
[8] = IKZF1: High at baseline, 0.30 mg QD
[9] = IKZF1: High at baseline, 0.45 mg QD
[10] = IKZF1 Status of SNP rs4917014: 1 or 2 Copies, 0.15 mg QD
[11] = IKZF1 Status of SNP rs4917014: 1 or 2 Copies, 0.30 mg QD
[12] = IKZF1 Status of SNP rs4917014: 1 or 2 Copies, 0.45 mg QD
[13] = IKZF3 (Aiolos): High at baseline, 0.45 mg QD
[14] = Ikaros IFN: High at baseline, 0.15 mg QD
[15] = Ikaros IFN: High at baseline, 0.30 mg QD
[16] = Ikaros IFN: High at baseline, 0.45 mg QD

O=C1CC[C@H](N2Cc3c(OCc4ccc(CN5CCOCC5)cc4)cccc3C2=O)C(=O)N1 [iberdomide, (S)-3-[4-({4-[(morpholin-4-yl)methyl]phenyl}methoxy)-1-oxo-1,3-dihydro-2H-isoindol-2-yl]piperidine-2,6-dione-hydrogen chloride (1/1)]
OR (odds ratio) of Multivariate Logistic Model for SRI(4) [1, 3]: 1.102 | Parameter Estimate of Multivariate Logistic Model for SRI(4) [1, 3]: 0.0969 | relationship of binary response SRI(4) to iberdomide AUCss (logistic regression) ([1]; dose range 0.15 mg to 0.45 mg QD): no relationship | SRI(4) stratified difference from placebo ([2]; 0 copies of IKZF1 rs4917014 protective minor allele (G), 0.45 mg QD): 6.1% | estimated SRI-4 response rate ([2]; Aiolos (IKZF3) gene expression cutoff −0.49, 0.45 mg dose, prevalence vs. cutoff analysis): 60-65% | Percentage of Subjects Who Achieve SRI(4) at Week 24, n/m (%) [2, 4]: 8/24 (33.3) % | SRI(4) at Week 24, Stratified Difference (%) (95% CI), Iberdomide - Placebo [2, 4]: −0.7 (−22.56, 22.94) % | Percentage of Subjects Who Achieve SRI(4) at Week 24, n/m (%) [2, 5]: 19/49 (38.8) % | SRI(4) at Week 24, Stratified Difference (%) (95% CI), Iberdomide - Placebo [2, 5]: 4.5 (−15.06, 23.69) % | Percentage of Subjects Who Achieve SRI(4) at Week 24, n/m (%) [2, 6]: 30/54 (55.6) % | SRI(4) at Week 24, Stratified Difference (%) (95% CI), Iberdomide - Placebo [2, 6]: 20.4 (0.74, 38.01) % | SRI-4 treatment effect versus placebo ([2]; IFN High Aiolos High double-positive population, high dose 0.45 mg): 29.8% | SRI-4 treatment effect versus placebo ([2]; IFN High Aiolos High double-positive population, low dose 0.15 mg): 29.8% | SRI-4 treatment effect versus placebo ([2]; IFN High Aiolos Low population, low dose 0.15 mg): 26.8% | SRI-4 treatment effect versus placebo ([2]; IFN Low Aiolos High subset, high dose 0.45 mg): 35.0% | Percentage of Subjects Who Achieve SRI(4) at Week 24, n/m (%) [2, 7]: 12/28 (42.9) % | SRI(4) at Week 24, Stratified Difference (%) (95% CI), Iberdomide - Placebo [2, 7]: 7.0 (−14.36, 28.68) % | Percentage of Subjects Who Achieve SRI(4) at Week 24, n/m (%) [2, 8]: 21/53 (39.6) % | SRI(4) at Week 24, Stratified Difference (%) (95% CI), Iberdomide - Placebo [2, 8]: 2.4 (−15.87, 20.58) % | Percentage of Subjects Who Achieve SRI(4) at Week 24, n/m (%) [2, 9]: 35/64 (54.7) % | SRI(4) at Week 24, Stratified Difference (%) (95% CI), Iberdomide - Placebo [2, 9]: 16.1 (−1.76, 32.65) % | Percentage of Subjects Who Achieve SRI(4) at Week 24, n/m (%) [2, 10]: 11/21 (52.4) % | SRI(4) at Week 24, Stratified Difference (%) (95% CI), Iberdomide - Placebo [2, 10]: 23.0 (−2.36, 46.07) % | Percentage of Subjects Who Achieve SRI(4) at Week 24, n/m (%) [2, 11]: 18/46 (39.1) % | SRI(4) at Week 24, Stratified Difference (%) (95% CI), Iberdomide - Placebo [2, 11]: 7.9 (−12.18, 26.84) % | Percentage of Subjects Who Achieve SRI(4) at Week 24, n/m (%) [2, 12]: 20/36 (55.6) % | SRI(4) at Week 24, Stratified Difference (%) (95% CI), Iberdomide - Placebo [2, 12]: 21.3% | Percentage of Subjects Who Achieve SRI(4) at Week 24, n/m (%) ([2]; IKZF3 (Aiolos): High at baseline, 0.15 mg QD): 5/14 (35.7) % | SRI(4) at Week 24, Stratified Difference (%) (95% CI), Iberdomide - Placebo ([2]; IKZF3 (Aiolos): High at baseline, 0.15 mg QD, listed as Iberdomide): 2.2 (−24.82, 31.94) % | Percentage of Subjects Who Achieve SRI(4) at Week 24, n/m (%) ([2]; IKZF3 (Aiolos): High at baseline, 0.30 mg QD): 9/32 (28.1) % | SRI(4) at Week 24, Stratified Difference (%) (95% CI), Iberdomide - Placebo ([2]; IKZF3 (Aiolos): High at baseline, 0.30 mg QD, listed as Iberdomide): −7.1 (−31.13, 16.94) % | Percentage of Subjects Who Achieve SRI(4) at Week 24, n/m (%) [2, 13]: 23/36 (63.9) % | SRI(4) at Week 24, Stratified Difference (%) (95% CI), Iberdomide - Placebo [2, 13]: 32.9% | SRI(4) at Week 24, Stratified Difference (%) (95% CI), Iberdomide - Placebo ([2]; IKZF3 (Aiolos): High at baseline, 0.45 mg QD, listed as Iberdomide): 32.9 (7.74, 52.90) % | Percentage of Subjects Who Achieve SRI(4) at Week 24, n/m (%) [2, 14]: 16/30 (53.3) % | SRI(4) at Week 24, Stratified Difference (%) (95% CI), Iberdomide - Placebo [2, 14]: 18.6 (−3.69, 39.05) % | Percentage of Subjects Who Achieve SRI(4) at Week 24, n/m (%) [2, 15]: 21/49 (42.9) % | SRI(4) at Week 24, Stratified Difference (%) (95% CI), Iberdomide - Placebo [2, 15]: 8.9 (−10.47, 27.36) % | Percentage of Subjects Who Achieve SRI(4) at Week 24, n/m (%) [2, 16]: 36/62 (58.1) % | SRI(4) at Week 24, Stratified Difference (%) (95% CI), Iberdomide - Placebo [2, 16]: 24.3% | SRI(4) at Week 24, Stratified Difference (%) (95% CI), Iberdomide - Placebo ([2]; Ikaros IFN: High at baseline, 0.45 mg QD, listed as Iberdomide): 24.3 (5.45, 40.76) % | SRI(4) at Week 24, Stratified Difference (%) (95% CI), Iberdomide - Placebo ([2]; Overall Subjects, 0.15 mg QD): 11.4% | Percentage of Subjects Who Achieve SRI(4) at Week 24, n/m (%) ([2]; Overall Subjects, 0.15 mg QD, nonresponder imputation): 20/42 (47.6) % | SRI(4) at Week 24, Stratified Difference (%) (95% CI), Iberdomide - Placebo ([2]; Overall Subjects, 0.15 mg QD, listed as Iberdomide): 11.4 (−6.57, 29.00) % | SRI(4) at Week 24, Stratified Difference (%) (95% CI), Iberdomide - Placebo ([2]; Overall Subjects, 0.30 mg QD): 5.0% | Percentage of Subjects Who Achieve SRI(4) at Week 24, n/m (%) ([2]; Overall Subjects, 0.30 mg QD, nonresponder imputation): 33/82 (40.2) %
